Results taken from patent US20260325533A1, “CDK INHIBITOR COMPOUNDS” (ALEKSIA THERAPEUTICS, INC., priority 2023, published 2026).
Read-outs that look alike come from different tables or passages of the source.

Assays:
Assay type in all cases: biochemical
[1] = biological target: CDK4/CCND3 (Homo sapiens, UniProt P11802); test: CDK4 homogeneous time-resolved fluorescence (HTRF) kinase assay; details: CDK4/CCND
Method in brief: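 HTRF kinase assay, CDK4/CCND3 1.5 nM, ATP 1 mM, ULight-4E-BP1 peptide 50 nM, 23 °C, 60 min reaction after 20 min preincubation. Eu-anti-pThr37/46 antibody detection. 11-pt half-log curves from 10 μM → IC50.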

[2] = biological target: CDK6/CCND1 (Homo sapiens, UniProt Q00534); test: CDK6 homogeneous time-resolved fluorescence (HTRF) kinase assay; details: CDK6/CCND
Method in brief: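 Recombinant CDK6/CCND1 (1 nM final) was preincubated with compound for 20 min at 23 °C in HEPES buffer with MgCl2, EGTA, DTT and Tween 20. Kinase reaction then ran 60 min at 23 °C with 1 mM ATP and 50 nM ULight-4E-BP1 (Thr37/46) peptide, and was stopped with EDTA.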

[3] = biological target: CDK1/CCNB1 (Homo sapiens, UniProt P06493); test: CDK1 homogeneous time-resolved fluorescence (HTRF) kinase assay; details: CDK1/CCNB
Method in brief: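 High-ATP (1 mM) HTRF assay with 0.5 nM CDK1/cyclin B1 and 50 nM ULight-4E-BP1 (Thr37/46) substrate, 60 min at 23 °C after 20-min compound preincubation. IC50 values come from dose-response curves.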

[4] = biological target: CDK2/CCNE1 (Homo sapiens, UniProt P24941); test: CDK2 homogeneous time-resolved fluorescence (HTRF) kinase assay; details: CDK2/CCNE
Method in brief: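 An HTRF format measures CDK2/CCNE1 (3 nM) phosphorylating a 4E-BP1 Thr37/46 peptide at high (1 mM) ATP. Reactions run one hour at 23 °C, then EDTA-quenched and probed with Eu-labelled phospho-specific antibody.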

[5] = x = IC50 25-250 nM, read-out: CDK4/CCND IC50 (25-250 nM)
[6] = x = IC50 >250 nM, read-out: CDK1/CCNB IC50 (>250 nM column)
[7] = x = IC50 <25 nM, read-out: CDK2/CCNE IC50 (<25 nM)
[8] = 25-250 nM marked x, read-out: CDK4/CCND IC50 25-250 nM
[9] = 25-250 nM marked x, read-out: CDK6/CCND IC50 25-250 nM
[10] = >250 nM marked x, read-out: CDK1/CCNB IC50 >250 nM
[11] = <25 nM, read-out: CDK2/CCNE IC50 <25 nM
[12] = >250 nM, read-out: CDK4/CCND IC50, >250 nM
[13] = >250 nM, 1 mM ATP, read-out: CDK6/CCND IC50, >250 nM
[14] = >250 nM, read-out: CDK1/CCNB IC50 >250 nM
[15] = x = IC50 >250 nM, read-out: CDK4/CCND IC50 (>250 nM column)
[16] = x = IC50 >250 nM, read-out: CDK6/CCND IC50 (>250 nM column)
[17] = x = IC50 25-250 nM, read-out: CDK1/CCNB IC50 (25-250 nM)

CDK6/CCND1, sequence (Q00534 whole entry): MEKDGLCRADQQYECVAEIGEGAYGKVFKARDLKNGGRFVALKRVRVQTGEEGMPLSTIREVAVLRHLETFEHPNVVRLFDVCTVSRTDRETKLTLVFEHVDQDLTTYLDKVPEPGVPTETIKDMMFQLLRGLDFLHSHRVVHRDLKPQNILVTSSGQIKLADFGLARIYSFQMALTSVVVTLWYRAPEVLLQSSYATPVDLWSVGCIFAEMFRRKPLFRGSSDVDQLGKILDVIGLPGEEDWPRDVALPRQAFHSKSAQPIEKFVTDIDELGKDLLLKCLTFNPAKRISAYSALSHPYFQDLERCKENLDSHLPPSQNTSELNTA
CDK6/CCND1, sequence (P24385 whole entry partner): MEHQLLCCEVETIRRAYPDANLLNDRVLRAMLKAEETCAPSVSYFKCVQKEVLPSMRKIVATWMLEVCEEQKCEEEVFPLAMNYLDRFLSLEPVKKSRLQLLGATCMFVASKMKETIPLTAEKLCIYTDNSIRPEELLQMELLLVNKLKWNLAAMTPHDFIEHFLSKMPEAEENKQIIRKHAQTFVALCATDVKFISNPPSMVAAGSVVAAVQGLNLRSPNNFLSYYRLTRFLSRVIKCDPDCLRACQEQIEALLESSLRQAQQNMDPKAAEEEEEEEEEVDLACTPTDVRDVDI
CDK4/CCND3, sequence (P11802 whole entry): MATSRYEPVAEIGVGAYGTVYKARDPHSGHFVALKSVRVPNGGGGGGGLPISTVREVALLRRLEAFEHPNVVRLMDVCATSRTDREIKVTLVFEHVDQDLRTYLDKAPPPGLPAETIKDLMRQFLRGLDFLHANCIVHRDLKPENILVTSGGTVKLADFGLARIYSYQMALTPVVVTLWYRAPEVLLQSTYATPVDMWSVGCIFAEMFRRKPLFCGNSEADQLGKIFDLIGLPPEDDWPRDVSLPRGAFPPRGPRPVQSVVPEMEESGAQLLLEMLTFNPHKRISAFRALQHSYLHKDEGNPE
CDK4/CCND3, sequence (P30281 whole entry partner): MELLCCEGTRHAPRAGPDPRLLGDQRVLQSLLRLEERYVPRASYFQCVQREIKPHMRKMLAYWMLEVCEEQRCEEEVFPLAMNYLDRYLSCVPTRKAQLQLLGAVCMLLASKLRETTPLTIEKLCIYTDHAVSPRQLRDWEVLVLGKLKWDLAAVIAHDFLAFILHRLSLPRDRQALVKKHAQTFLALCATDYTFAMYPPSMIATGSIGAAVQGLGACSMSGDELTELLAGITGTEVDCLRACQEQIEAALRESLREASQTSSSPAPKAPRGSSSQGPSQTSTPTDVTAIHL
CDK1/CCNB1, sequence (P06493 whole entry): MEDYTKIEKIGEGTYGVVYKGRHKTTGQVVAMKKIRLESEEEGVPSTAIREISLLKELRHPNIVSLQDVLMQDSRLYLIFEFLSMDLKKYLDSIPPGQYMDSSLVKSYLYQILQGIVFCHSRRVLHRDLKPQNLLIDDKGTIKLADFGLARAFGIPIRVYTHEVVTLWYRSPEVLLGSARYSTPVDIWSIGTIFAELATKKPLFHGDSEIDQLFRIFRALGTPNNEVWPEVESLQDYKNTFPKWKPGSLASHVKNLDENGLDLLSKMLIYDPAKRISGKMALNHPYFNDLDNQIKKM
CDK1/CCNB1, sequence (P14635 whole entry partner): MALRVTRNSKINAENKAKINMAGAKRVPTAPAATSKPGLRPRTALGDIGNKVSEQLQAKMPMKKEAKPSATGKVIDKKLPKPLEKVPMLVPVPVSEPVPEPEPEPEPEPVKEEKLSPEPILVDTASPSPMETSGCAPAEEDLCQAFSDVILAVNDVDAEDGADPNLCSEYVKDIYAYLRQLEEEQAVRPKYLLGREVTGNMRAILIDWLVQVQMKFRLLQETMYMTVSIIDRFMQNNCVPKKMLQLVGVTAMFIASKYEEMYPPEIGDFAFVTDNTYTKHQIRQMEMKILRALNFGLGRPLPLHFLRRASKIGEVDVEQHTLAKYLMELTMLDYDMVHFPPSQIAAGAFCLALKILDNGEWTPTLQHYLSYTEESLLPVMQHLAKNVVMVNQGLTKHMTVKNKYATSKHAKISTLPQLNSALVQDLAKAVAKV

CCS(=N)(=O)c1ccc(Nc2cc3c(-c4ccc5c(cnn5CC(O)(C(F)(F)F)C(F)(F)F)c4C)nccc3cn2)cc1 (racemic) [Ex 473, ethyl(imino)(4-((5-(4-methyl-1-(3,3,3-trifluoro-2-hydroxy-2-(trifluoromethyl)propyl)-1H-indazol-5-yl)-2,6-naphthyridin-3-yl)amino)phenyl)-l6-sulfanone]
IC50 [1, 5]: 25 to 250 nM
IC50 ([2]; x = IC50 25-250 nM, read-out: CDK6/CCND IC50 (25-250 nM)): 25 to 250 nM
IC50 [3, 6]: > 250 nM
IC50 [4, 7]: < 25 nM

CS(=O)(=O)c1ccc(Nc2cc3c(C#Cc4ccncc4)nccc3cn2)cc1 [Ex 138, N-(4-(methylsulfonyl)phenyl)-5-(pyridin-4-ylethynyl)-2,6-naphthyridin-3-amine]
IC50 [1, 8]: 25 to 250 nM
IC50 [2, 9]: 25 to 250 nM
IC50 [3, 10]: > 250 nM
IC50 [4, 11]: < 25 nM

CCC1(CC)C(=O)Nc2cc(C#Cc3nccc4cnc(Nc5ccc(S(=N)(=O)C(C)C)cc5OC)cc34)ccc21 (single isomer, unassigned) [Ex 340, 3,3-diethyl-6-((7-((2-methoxy-4-(propan-2-ylsulfonimidoyl)phenyl)amino)-2,6-naphthyridin-1-yl)ethynyl)indolin-2-one]
IC50 ([1]; >250 nM marked x, read-out: CDK4/CCND IC50 >250 nM): > 250 nM
IC50 ([2]; >250 nM marked x, read-out: CDK6/CCND IC50 >250 nM): > 250 nM
IC50 [3, 10]: > 250 nM
IC50 [4, 11]: < 25 nM

CN1CCN(c2ccc(C#Cc3nccc4cnc(Nc5ccc(S(=O)(=O)O)cc5)cc34)cc2)CC1 [Example 863, 4-((5-((4-(4-methylpiperazin-1-yl)phenyl)ethynyl)-2,6-naphthyridin-3-yl)amino)benzenesulfonic acid]
IC50 [1, 12]: > 250 nM
IC50 [2, 13]: > 250 nM
IC50 [3, 14]: > 250 nM
IC50 ([4]; 25-250 nM, read-out: CDK2/CCNE IC50, 25-250 nM): 25 to 250 nM

CC(C)S(=O)(=O)c1ccc(Nc2cc3c(C#Cc4ccc5c(c4)NC(=O)C5(C)C)nccc3cn2)cc1 [Ex 458, 6-((7-((4-(isopropylsulfonyl)phenyl)amino)-2,6-naphthyridin-1-yl)ethynyl)-3,3-dimethylindolin-2-one]
IC50 [1, 15]: > 250 nM
IC50 [2, 16]: > 250 nM
IC50 [3, 17]: 25 to 250 nM
IC50 [4, 7]: < 25 nM

COc1cnc(NS(=O)(=O)c2ccc(Nc3cc4c(-c5ccc6c(cnn6CC(O)(C(F)(F)F)C(F)(F)F)c5C)nccc4cn3)cc2)nc1N1CCOCC1 [Ex 702, N-(5-methoxy-4-morpholinopyrimidin-2-yl)-4-((5-(4-methyl-1-(3,3,3-trifluoro-2-hydroxy-2-(trifluoromethyl)propyl)-1H-indazol-5-yl)-2,6-naphthyridin-3-yl)amino)benzenesulfonamide]
IC50 [1, 12]: > 250 nM
IC50 [2, 13]: > 250 nM
IC50 [3, 14]: > 250 nM
IC50 ([4]; <25 nM, read-out: CDK2/CCNE IC50, <25 nM): < 25 nM

CC1(C)C(=O)Nc2nc(C#Cc3nccc4cnc(Nc5ccc(S(C)(=O)=O)cc5)cc34)ccc21 [Example 374, 3,3-dimethyl-6-((7-((4-(methylsulfonyl)phenyl)amino)-2,6-naphthyridin-1-yl)ethynyl)-1,3-dihydro-2H-pyrrolo[2,3-b]pyridin-2-one]
IC50 [1, 15]: > 250 nM
IC50 [2, 16]: > 250 nM
IC50 [3, 17]: 25 to 250 nM
IC50 [4, 7]: < 25 nM

CCNS(=O)(=O)c1ccc(Nc2cc3c(C#Cc4cccnc4N)nccc3cn2)cc1 [Ex 447, 4-((5-((2-aminopyridin-3-yl)ethynyl)-2,6-naphthyridin-3-yl)amino)-N-ethylbenzenesulfonamide]
IC50 [1, 5]: 25 to 250 nM
IC50 [2, 16]: > 250 nM
IC50 [3, 17]: 25 to 250 nM
IC50 [4, 7]: < 25 nM

CCC1(CC)C(=O)Nc2cc(C#Cc3nccc4cnc(Nc5ccc(S(C)(=O)=O)cc5C)cc34)ccc21 [Example 395, 3,3-diethyl-6-((7-((2-methyl-4-(methylsulfonyl)phenyl)amino)-2,6-naphthyridin-1-yl)ethynyl)indolin-2-one]
IC50 [1, 15]: > 250 nM
IC50 [2, 16]: > 250 nM
IC50 [3, 6]: > 250 nM
IC50 [4, 7]: < 25 nM

C=CS(=O)(=O)N1CCC(Nc2cc3c(N4CCC(C5CCN(C)CC5)CC4)nccc3cn2)CC1 [Ex 103, 5-(1'-methyl-[4,4'-bipiperidin]-1-yl)-N-(1-(vinylsulfonyl)piperidin-4-yl)-2,6-naphthyridin-3-amine]
IC50 [1, 8]: 25 to 250 nM
IC50 [2, 9]: 25 to 250 nM
IC50 [3, 10]: > 250 nM
IC50 ([4]; 25-250 nM marked x, read-out: CDK2/CCNE IC50 25-250 nM): 25 to 250 nM
